Assay results reported in patent US20030105124A1, “Substituted benzolactam compounds” (priority 2000, published 2003).
pIC50: −log10 of the molar value.

Key:
[1] = system: gerbils; test: tapping test in gerbils; type: in vivo, gerbil; conditions: % inhibition at 0.3 mg/kg scoring
Method: More specifically, gerbils are lightly anesthetized with ether and the skull surface is exposed. […] Following injection, gerbils are placed in 1 L beaker individually and monitored for repetitive hind paw tapping. Some compounds prepared in the following Examples were tested in accordance with these testing methods.

[2] = target: T1, Ca^2+ channel (Rattus norvegicus, UniProt P22002); test: verapamil binding study in rat heart membrane preparation; conditions: 0.25 nM [^3H]desmethoxyverapamil, read-out: verapamil binding study (Ca^2+ channel binding affinity, adverse effect)
T1 construct: from tissue; host or cells: rat heart membrane preparation
Method: The adverse effect on Ca^2+ channel binding affinity is determined by verapamil binding study in rat heart membrane preparation. More specifically, verapamil binding study is performed as previously described by Reynolds et al., (J. Pharmacol. Exp. Ther., 237, 731, (1986)). Briefly, incubations are initiated by the addition of tissue to tubes containing 0.25 nM [^3H]desmethoxyverapamil and various concentrations of compounds (total volume; 1 ml). Nonspecific binding is defined as radioligand binding remaining in the presence of 3-10 μM methoxyverapamil.

[3] = target: T2, substance P receptor sites in IM-9 cells (Homo sapiens, UniProt P25103); test: IM-9 binding assay (inhibition of [3H]SP binding); conditions: human IM-9 cells, 0.56 nM [^3H]SP, 120 min at 4° C.
T2 construct: endogenous in cells; host or cells: IM-9 cells (human)
Method: The activity of the compounds of the present invention, as substance P antagonists, is determined by their ability to inhibit the binding of substance P at its receptor sites in IM-9 cells employing radioactive ligands. The substance P antagonist activity of the herein described compounds is evaluated by using the standard assay procedure described by D. G. Payan et al., as reported in J. Immunolocy, 133, 3260 (1984). This method essentially involves determining the concentration of the individual compound required to reduce by 50% the amount of radiolabeled substance P ligands at their receptor sites in said isolated cow tissues or IM-9 cells, thereby affording characteristic IC50 values for each compound tested. More specifically, inhibition of [^3H]SP binding to human IM-9 cells by compounds are determined in assay buffer (50 mM Tris-HCl (pH 7.4), 1 mM MnCl2, 0.02% bovine serum albumin, bacitracin (40 μg/ml), leupeptin (4 μg/ml), chymostatin (2 μg/ml) and phosphoramidon (30 μg/ml)). The reaction is initiated by the addition of cells to assay buffer containing 0.56 nM [^3H]SP and various concentrations of compounds (total volume; 0.5 ml) and allowed to incubate for 120 min at 4° C. […] Nonspecific binding is defined as the radioactivity remaining in the presence of 1 μM SP. The filters are placed into tubes and counted using liquid scintillation counter.

T2 sequence (P25103 whole entry): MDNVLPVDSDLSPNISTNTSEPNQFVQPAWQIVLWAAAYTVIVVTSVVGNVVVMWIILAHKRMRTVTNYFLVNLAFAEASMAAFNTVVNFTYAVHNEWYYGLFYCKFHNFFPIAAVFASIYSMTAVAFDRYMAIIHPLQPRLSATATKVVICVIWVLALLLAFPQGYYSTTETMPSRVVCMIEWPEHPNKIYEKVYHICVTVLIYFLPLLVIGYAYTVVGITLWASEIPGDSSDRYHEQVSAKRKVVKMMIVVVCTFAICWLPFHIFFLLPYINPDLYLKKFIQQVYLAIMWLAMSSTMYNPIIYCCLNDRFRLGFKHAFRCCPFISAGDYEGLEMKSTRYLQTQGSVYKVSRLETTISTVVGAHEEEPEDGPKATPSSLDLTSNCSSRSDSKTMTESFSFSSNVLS
T1 sequence (P22002 whole entry, other chains not shown): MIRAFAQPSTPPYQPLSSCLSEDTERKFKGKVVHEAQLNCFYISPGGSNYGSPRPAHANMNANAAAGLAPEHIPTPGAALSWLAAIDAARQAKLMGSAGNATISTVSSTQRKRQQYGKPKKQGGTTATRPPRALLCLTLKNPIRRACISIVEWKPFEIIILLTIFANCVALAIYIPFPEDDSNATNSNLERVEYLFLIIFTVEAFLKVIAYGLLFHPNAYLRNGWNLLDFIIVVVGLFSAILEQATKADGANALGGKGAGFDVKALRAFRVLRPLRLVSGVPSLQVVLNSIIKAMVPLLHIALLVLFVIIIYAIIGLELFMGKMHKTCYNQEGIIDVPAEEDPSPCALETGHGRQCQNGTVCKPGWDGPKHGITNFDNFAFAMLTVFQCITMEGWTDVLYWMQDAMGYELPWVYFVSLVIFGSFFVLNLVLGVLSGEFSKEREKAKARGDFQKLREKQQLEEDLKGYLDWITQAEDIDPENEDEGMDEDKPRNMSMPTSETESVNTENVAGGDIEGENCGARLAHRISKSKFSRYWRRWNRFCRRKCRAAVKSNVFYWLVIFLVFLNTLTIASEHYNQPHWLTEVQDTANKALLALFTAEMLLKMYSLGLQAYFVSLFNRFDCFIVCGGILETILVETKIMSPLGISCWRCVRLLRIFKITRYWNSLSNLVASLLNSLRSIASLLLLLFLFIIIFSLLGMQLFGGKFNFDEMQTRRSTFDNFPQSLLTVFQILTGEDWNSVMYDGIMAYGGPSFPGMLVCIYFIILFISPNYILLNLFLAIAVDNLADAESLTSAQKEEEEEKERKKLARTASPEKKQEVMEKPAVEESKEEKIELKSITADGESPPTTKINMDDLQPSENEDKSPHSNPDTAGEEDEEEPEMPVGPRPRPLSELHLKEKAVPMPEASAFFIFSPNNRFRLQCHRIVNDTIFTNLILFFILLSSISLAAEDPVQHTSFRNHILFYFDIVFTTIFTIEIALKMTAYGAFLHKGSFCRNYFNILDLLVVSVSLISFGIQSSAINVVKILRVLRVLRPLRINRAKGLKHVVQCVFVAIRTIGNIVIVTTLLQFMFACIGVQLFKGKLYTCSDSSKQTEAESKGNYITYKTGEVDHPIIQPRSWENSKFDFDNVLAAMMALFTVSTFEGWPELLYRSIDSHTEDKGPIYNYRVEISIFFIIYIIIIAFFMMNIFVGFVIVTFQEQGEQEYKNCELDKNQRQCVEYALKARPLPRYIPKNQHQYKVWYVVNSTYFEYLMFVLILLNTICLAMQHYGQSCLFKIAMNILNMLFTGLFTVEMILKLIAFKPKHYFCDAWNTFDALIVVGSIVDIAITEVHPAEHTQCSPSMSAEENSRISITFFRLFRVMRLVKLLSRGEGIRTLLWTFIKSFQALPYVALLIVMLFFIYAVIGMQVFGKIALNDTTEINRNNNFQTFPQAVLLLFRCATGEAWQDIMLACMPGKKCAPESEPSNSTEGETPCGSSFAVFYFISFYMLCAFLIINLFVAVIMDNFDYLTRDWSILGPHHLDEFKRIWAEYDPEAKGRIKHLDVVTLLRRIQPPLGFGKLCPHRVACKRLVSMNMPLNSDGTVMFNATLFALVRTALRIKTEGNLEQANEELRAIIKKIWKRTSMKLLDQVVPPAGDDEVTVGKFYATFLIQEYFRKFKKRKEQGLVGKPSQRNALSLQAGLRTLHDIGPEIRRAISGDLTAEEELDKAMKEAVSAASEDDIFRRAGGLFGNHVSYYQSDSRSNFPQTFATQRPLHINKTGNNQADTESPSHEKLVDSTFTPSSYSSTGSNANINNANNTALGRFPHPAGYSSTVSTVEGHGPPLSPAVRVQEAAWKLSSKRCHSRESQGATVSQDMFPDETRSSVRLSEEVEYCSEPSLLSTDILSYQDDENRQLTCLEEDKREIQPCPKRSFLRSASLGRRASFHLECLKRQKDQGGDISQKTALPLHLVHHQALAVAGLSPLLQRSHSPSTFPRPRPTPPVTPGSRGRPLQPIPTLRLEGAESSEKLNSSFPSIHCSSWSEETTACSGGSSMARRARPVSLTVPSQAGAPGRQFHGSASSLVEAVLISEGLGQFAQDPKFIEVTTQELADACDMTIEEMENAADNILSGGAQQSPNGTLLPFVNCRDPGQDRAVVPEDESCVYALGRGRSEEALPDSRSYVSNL
T1 sequence (P54290 25-944 partner limits assumed, other chains not shown): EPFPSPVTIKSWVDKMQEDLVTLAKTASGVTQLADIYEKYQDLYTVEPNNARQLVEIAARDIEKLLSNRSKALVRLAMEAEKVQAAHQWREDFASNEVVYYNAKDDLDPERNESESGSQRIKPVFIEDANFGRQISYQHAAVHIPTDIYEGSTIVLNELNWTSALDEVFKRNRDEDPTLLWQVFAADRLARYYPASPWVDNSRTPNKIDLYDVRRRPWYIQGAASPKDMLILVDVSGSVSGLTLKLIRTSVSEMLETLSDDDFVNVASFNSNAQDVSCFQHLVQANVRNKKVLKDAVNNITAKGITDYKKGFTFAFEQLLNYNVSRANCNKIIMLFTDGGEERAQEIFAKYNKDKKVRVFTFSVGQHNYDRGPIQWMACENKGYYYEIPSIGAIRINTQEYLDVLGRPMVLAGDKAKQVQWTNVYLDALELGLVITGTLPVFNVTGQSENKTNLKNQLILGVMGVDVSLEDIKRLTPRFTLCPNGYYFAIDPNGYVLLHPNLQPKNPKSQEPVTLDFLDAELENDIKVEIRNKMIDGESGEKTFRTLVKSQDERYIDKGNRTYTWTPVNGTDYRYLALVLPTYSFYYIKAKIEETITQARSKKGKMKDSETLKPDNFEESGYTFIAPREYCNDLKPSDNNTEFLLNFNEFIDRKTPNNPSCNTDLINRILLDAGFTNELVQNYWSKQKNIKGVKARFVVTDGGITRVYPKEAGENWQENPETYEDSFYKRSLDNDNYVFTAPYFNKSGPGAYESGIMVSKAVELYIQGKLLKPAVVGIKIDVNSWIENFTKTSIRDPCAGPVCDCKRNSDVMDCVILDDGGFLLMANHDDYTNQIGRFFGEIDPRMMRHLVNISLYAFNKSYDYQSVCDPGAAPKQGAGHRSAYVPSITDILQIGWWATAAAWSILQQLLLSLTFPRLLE
T1 sequence (P54290 945-1091 partner limits assumed, other chains not shown): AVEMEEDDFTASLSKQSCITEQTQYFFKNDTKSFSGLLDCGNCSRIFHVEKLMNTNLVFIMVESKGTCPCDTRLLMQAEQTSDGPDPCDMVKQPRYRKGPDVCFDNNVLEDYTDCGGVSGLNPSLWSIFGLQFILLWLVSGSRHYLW

| melting point | Structure (SMILES) | further results |
| --- | --- | --- |
| 260 to 263 °C | COc1cc2ccc(=O)n(C)c2cc1CN[C@H]1CCCN[C@H]1c1ccccc1.Cl.Cl | – |
| 238 to 240 °C | CN1C(=O)CCc2cc(OC(F)F)c(CN[C@H]3CCCN[C@H]3c3ccccc3)cc21.Cl.Cl | – |
| 234 to 236 °C | COc1cc2c(cc1CN[C@H]1CCCN[C@H]1c1ccccc1)C(C)(C)C(=S)N2C.Cl.Cl | – |
| 245 to 246 °C | COc1cc2c(cc1CN[C@H]1CCCN[C@H]1c1ccccc1)N(C)C(=S)CC2.Cl.Cl | – |
| 257 to 260 °C | COc1cc2c(cc1CN[C@H]1CCCN[C@H]1c1ccccc1)N(C(C)C)C(=O)CC2.Cl.Cl | – |
| 243 to 244 °C | COc1cc2c(cc1CN[C@H]1CCCN[C@H]1c1ccccc1)CCC(=O)N2C.Cl.Cl | – |
| 219 to 221 °C | COc1cc2c(cc1CN[C@H]1CCCN[C@H]1c1ccccc1)CCC(=S)N2C.Cl.Cl | – |
| 235 to 237 °C | COc1cc2c(cc1CN[C@H]1CCCN[C@H]1c1ccccc1)N(C)C(=O)OC2.Cl.Cl | – |
| 255 to 256 °C | COc1cc2c(cc1CN[C@H]1CCCN[C@H]1c1ccccc1)C(C(F)(F)F)CC(=O)N2C.Cl.Cl (stereo partly drawn) | – |
| 252 to 254 °C | COc1cc2c(cc1CN[C@H]1CCCN[C@H]1c1ccccc1)N(C)C(=O)SC2.Cl.Cl | – |
| 243 to 245 °C | COc1cc2c(cc1CN[C@H]1CCCN[C@H]1c1ccccc1)N(CC(F)(F)F)C(=O)CC2.Cl.Cl | – |
| 125 to 128 °C | COc1cc2ccc(=O)n(C)c2cc1CN[C@H]1C2CCN(CC2)[C@H]1C(c1ccccc1)c1ccccc1 | – |
| 136 to 139 °C | COc1cc2c(cc1CN[C@H]1C3CCN(CC3)[C@H]1C(c1ccccc1)c1ccccc1)N(C)C(=O)CC2 | – |
| 236 to 238 °C | COc1cc2c(cc1CN[C@H]1CCCN[C@H]1c1ccccc1)N(C)C(=O)CCC2.Cl.Cl | – |
| 265 to 268 °C | COc1cc2c(cc1CN[C@H]1CCCN[C@H]1c1ccccc1)N(C)C(=O)CC2.Cl.Cl [Compound 21, (2S,3S)-3-(6-Methoxy-1-methyl-2-oxo-1,2,3,4-tetrahydroquinolin-7-yl)methylamino-2-phenylpiperidine Dihydrochloride] | [Sar^9, Met(O2)^11]substance P-induced tapping test, % inhibition [1]: 52%; pIC50 [2]: < 6.52; pIC50 [3]: > 10.00 |
